Measurements published in publication PMC5515969, “Effects of 31 FDA approved small-molecule kinase inhibitors on isolated rat liver mitochondria” (Archives of Toxicology, 2016).
Read-outs that look alike come from different tables or passages of the source.

Key:
[1] = system: isolated rat liver mitochondria; assay: Mitochondrial oxygen consumption (glutamate/malate or succinate driven, state 4 and state 3); format: biochemical; conditions: DMSO treated samples set as 1; for State 3 respiration driven by succinate at 10XCmax: key: 0 indicates that the drug had no effects (negative); for State 3 respiration driven by succinate at 1XCmax: key: 0 indicates that the drug had no effects (negative)
Procedure: Rats were anesthetized by an intraperitoneal injection of Nembutal and the liver perfused with PBS to remove the blood. The liver was then cut into small pieces and homogenized using a Dounce type homogenizer in the ice-cold isolation buffer (IB) containing 200 mM sucrose, 10 mM Tris-MOPS, 1 mM EGTA (pH 7.4). The sample was then centrifuged at 600g for 10 min. The supernatant was further centrifuged at 7500g for 10 min, and the pellets was washed once with the IB and centrifuged again at 7500g for 10 min to collect mitochondria. […] Before drug treatment, the protein concentration was adjusted to 1 mg/ml using appropriate buffer. […] Briefly, mitochondrial and cytosolic fractions from four different preparations using four rats were diluted using the Laemmli protein loading buffer and subject to SDS-PAGE with 4–20% gradient gels. The proteins were blotted to PVDF membranes and detected using antibodies against GAPDH, ATP5A, UQCRC2, SDHB, and NDUFB8.
The aliquoted stock solutions were kept for less than one month and each tube was used only once. The KIs were added to the mitochondria at 1:1000 dilutions. […] The Cmax data were from clinical trials which used FDA recommend dosages, route of administration, and duration. […] The final concentration of DMSO for drug treatment was always 0.1%, and control treatments were 0.1% DMSO.
Briefly, mitochondria were incubated with the KIs for 5 min, and then split evenly and loaded to the sample tubes of two Oxytherm systems (Hansatech Instruments Ltd), with one system used for measuring glutamate/malate driven respiration and the other succinate-driven respiration, both of which were defined as state 4 respiration. After 3 min, ADP was added to measure the maximal oxygen consumption rate, which was defined as state 3 respiration. […] The oxygen consumption rate of DMSO-treated samples (controls) was set as 1.

RCC I = RCC I activity in submitochondrial particles; format: biochemical, rat; set-up: key to RCC I at 10XCmax / RCC I at 100XCmax / RCC I at 50XCmax / RCC I at 30XCmax / RCC I at 20XCmax: activity relative to DMSO-treated controls (control set as 1 = 100%); conditions: 10XCmax; relative to DMSO treated samples
Procedure: (§1) KIs were incubated with submitochondrial particles (1 mg/ml) for 15 min and then RCC I–V activities measured. […] The activities of DMSO-treated samples (controls) were set as 1. […] The difference between the activity from rotenone-containing buffer and rotenone-absent buffer was considered as RCC I activity. […] For measuring RCC I/V and II activity, the changes in absorbance at 340 and 600 nm, respectively, were determined every 1 min for 6 min. For measuring RCC III and RCC IV, the changes in absorbance at 550 nm were measured every 10 s for 2 min.

RCC II = target: T1, RCC II (Rattus norvegicus, UniProt P21913+Q641Z9+Q6PCT8+Q920L2); assay: RCC II activity in submitochondrial particles; format: biochemical; set-up: key: activity relative to DMSO-treated controls (control set as 1 = 100%); conditions: relative to DMSO treated samples
T1 construct: Submitochondrial particles were prepared by subjecting the intact mitochondria to three successive freeze–thaw cycles; from tissue; host or cells: rat liver mitochondria, used as submitochondrial particles
In short: (§2)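 First, submitochondrial particles (1 mg/ml) are incubated with inhibitor for 15 min. Next, complex activities are followed spectrophotometrically, with RCC I taken as the difference between buffers lacking and containing rotenone. Finally, activities are expressed relative to DMSO controls set at 1.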

RCC III = RCC III activity in submitochondrial particles; format: biochemical, rat; set-up: key to RCC III at 100XCmax: activity relative to DMSO-treated controls (control set as 1 = 100%); conditions: 100XCmax; relative to DMSO treated samples
Procedure: as §1

RCC IV = RCC IV activity in submitochondrial particles; format: biochemical, rat; set-up: key to RCC IV at 50XCmax / RCC IV at 100XCmax: activity relative to DMSO-treated controls (control set as 1 = 100%); conditions: 50XCmax; relative to DMSO treated samples; in %
Procedure: as §1

RCC V = RCC V activity in submitochondrial particles; format: biochemical, rat; conditions: relative to DMSO treated samples; for RCC V at 5XCmax: key: 0 indicates that the drug had no effects (negative)
In short: as §2

[2] = system: isolated rat liver mitochondria; assay: Mitochondrial inner membrane potential (MMP), Rhodamine 123; format: biochemical; conditions: difference in signal between KI and DMSO treated samples at the end of experiments
From the text: Fig. 3 KI effects on mitochondrial inner membrane potential (MMP). […] In a, c, data are means and standard derivations from three separate experiments. *p < 0.05 as compared to DMSO-treated samples at the end of experiments. In b, data are means of two independent experiments

[3] = system: isolated rat liver mitochondria; assay: Mitochondrial swelling (absorbance at 535 nm); format: biochemical; conditions: difference in signal between KI and DMSO treated samples at the end of experiments; for Swelling 5XCmax: key: 0 indicates that the drug had no effects (negative)
[4] = system: isolated rat liver mitochondria; conditions: positive control alamethicin treated samples
[5] = set-up: method as in product labeling; conditions: ref product labeling; cited from earlier work
[6] = cited from earlier work
[7] = system: isolated rat liver mitochondria; assay: Mitochondrial ROS production (CM-H2DCFDA); conditions: DMSO treated samples set as 1

T1 sequence (Q920L2 35-656): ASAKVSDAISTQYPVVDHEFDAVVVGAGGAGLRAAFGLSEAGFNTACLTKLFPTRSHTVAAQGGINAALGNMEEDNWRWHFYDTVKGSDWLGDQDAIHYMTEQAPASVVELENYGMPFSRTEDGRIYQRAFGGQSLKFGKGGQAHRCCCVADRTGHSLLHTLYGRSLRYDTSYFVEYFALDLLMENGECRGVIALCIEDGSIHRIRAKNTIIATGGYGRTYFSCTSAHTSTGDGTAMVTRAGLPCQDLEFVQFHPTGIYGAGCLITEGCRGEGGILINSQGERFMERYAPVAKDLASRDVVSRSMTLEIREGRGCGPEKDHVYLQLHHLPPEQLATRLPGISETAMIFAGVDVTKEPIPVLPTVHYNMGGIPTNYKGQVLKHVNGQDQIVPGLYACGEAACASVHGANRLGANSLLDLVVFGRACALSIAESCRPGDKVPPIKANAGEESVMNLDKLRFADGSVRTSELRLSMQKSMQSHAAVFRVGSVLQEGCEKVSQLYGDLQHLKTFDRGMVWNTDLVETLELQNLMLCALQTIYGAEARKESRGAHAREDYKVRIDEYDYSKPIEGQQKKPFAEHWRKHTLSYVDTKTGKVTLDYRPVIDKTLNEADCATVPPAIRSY
T1 sequence (P21913 31-282): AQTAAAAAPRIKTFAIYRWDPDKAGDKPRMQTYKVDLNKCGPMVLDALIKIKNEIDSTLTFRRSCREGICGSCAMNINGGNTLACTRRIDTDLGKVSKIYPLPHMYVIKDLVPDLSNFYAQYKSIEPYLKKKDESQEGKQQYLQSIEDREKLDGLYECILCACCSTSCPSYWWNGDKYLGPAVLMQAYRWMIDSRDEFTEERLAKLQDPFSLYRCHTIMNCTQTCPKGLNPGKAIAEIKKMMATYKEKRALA
T1 sequence (Q641Z9 1-169): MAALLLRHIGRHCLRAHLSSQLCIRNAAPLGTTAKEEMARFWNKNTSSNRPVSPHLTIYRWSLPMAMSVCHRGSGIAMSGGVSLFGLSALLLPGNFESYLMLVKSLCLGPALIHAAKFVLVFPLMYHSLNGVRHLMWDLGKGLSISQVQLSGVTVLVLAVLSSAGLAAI
T1 sequence (Q6PCT8 57-159): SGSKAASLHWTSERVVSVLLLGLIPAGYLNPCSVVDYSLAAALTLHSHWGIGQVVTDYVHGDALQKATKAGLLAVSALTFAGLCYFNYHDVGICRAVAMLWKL

Structure (SMILES): COc1cc2ncnc(Nc3ccc(F)c(Cl)c3)c2cc1OCCCN1CCOCC1 [Gefitinib]
- State 3 respiration driven by succinate at 1XCmax ([1]; 1XCmax): 0
- State 4 respiration driven by succinate at 1XCmax ([1]; 1XCmax): 0
- State 3 respiration driven by succinate at 2.5XCmax ([1]; 2.5XCmax): 0
- State 4 respiration driven by succinate at 2.5XCmax ([1]; 2.5XCmax): 0
- State 3 respiration driven by succinate at 5XCmax ([1]; 5XCmax): 0
- State 4 respiration driven by succinate at 5XCmax ([1]; 5XCmax): 0
- State 3 respiration driven by succinate at 10XCmax ([1]; 10XCmax): 0
- State 4 respiration driven by succinate at 10XCmax ([1]; 10XCmax): 0
- State 3 respiration driven by succinate at 20XCmax ([1]; 20XCmax): 0
- State 4 respiration driven by succinate at 20XCmax ([1]; 20XCmax): 0
- State 3 respiration driven by succinate at 30XCmax ([1]; 30XCmax): 0
- State 4 respiration driven by succinate at 30XCmax ([1]; 30XCmax): 0
- State 3 respiration driven by succinate at 50XCmax ([1]; 50XCmax): 0
- State 4 respiration driven by succinate at 50XCmax ([1]; 50XCmax): 0
- State 3 respiration driven by succinate at 100XCmax ([1]; 100XCmax): 0
- State 4 respiration driven by succinate at 100XCmax ([1]; 100XCmax): 0
- RCC I at 10XCmax (RCC I): 0
- RCC II at 1.0XCmax (RCC II; 1.0XCmax): 0
- RCC II at 2.5XCmax (RCC II; 2.5XCmax): 0
- RCC II at 5XCmax (RCC II; 5XCmax): 0
- RCC II at 10XCmax (RCC II; 10XCmax): 0
- RCC II at 20XCmax (RCC II; 20XCmax): 0
- RCC II at 30XCmax (RCC II; 30XCmax): 0
- RCC II at 50XCmax (RCC II; 50XCmax): 0
- RCC II at 100XCmax (RCC II; 100XCmax): 0
- RCC III at 100XCmax (RCC III): 0
- RCC IV at 50XCmax (RCC IV): 0
- RCC V at 5XCmax (RCC V; 5XCmax): 0
- RCC V at 50XCmax (RCC V; 50XCmax): 0
- MMP measured by Rhodamine 123 at 1XCmax ([2]; 1XCmax): 0
- MMP measured by Rhodamine 123 at 2.5XCmax ([2]; 2.5XCmax): 0
- MMP measured by Rhodamine 123 at 5XCmax ([2]; 5XCmax): 0
- MMP measured by Rhodamine 123 at 10XCmax ([2]; 10XCmax): 0
- MMP measured by Rhodamine 123 at 20XCmax ([2]; 20XCmax): 0
- MMP measured by Rhodamine 123 at 30XCmax ([2]; 30XCmax): 0
- MMP measured by Rhodamine 123 at 50XCmax ([2]; 50XCmax): 0
- MMP measured by Rhodamine 123 at 100XCmax ([2]; 100XCmax): 0
- Swelling 1XCmax ([3]; 1XCmax): 0
- Swelling 2.5XCmax ([3]; 2.5XCmax): 0
- Swelling 5XCmax ([3]; 5XCmax): 0
- Swelling 10XCmax ([3]; 10XCmax): 0
- Swelling 20XCmax ([3]; 20XCmax): 0
- Swelling 30XCmax ([3]; 30XCmax): 0
- Swelling 50XCmax ([3]; 50XCmax): 0
- Swelling 100XCmax ([3]; 100XCmax): 0
- Cytochrome c release 1XCmax ([4]; 1XCmax): 0
- Cytochrome c release 2.5XCmax ([4]; 2.5XCmax): 0
- Cytochrome c release 5XCmax ([4]; 5XCmax): 0
- Cytochrome c release 10XCmax ([4]; 10XCmax): 0
- Cytochrome c release 20XCmax ([4]; 20XCmax): 0
- Cytochrome c release 30XCmax ([4]; 30XCmax): 0
- Cytochrome c release 50XCmax ([4]; 50XCmax): 0
- Cytochrome c release 100XCmax ([4]; 100XCmax): 0
- Potential for cardiotoxicity (based on labeling) [5]: 0
- Cmax ([6]; human therapeutic Cmax at FDA recommended dosages, ref product labeling and drug approval packages at the official FDA website): 0.27 µM
- Cmax ([6]; read-out: Cmax at µM, therapeutic maximal blood concentration, ref product labeling): 0.27 µM
- Cmax ([6]; therapeutic maximal blood concentration, ref product labeling): 122 ng/mL
- ROS measured by CM-H2DCFDA at 1XCmax ([7]; 1XCmax): 0
- ROS measured by CM-H2DCFDA at 2.5XCmax ([7]; 2.5XCmax): 0
- ROS measured by CM-H2DCFDA at 5XCmax ([7]; 5XCmax): 0
- ROS measured by CM-H2DCFDA at 10XCmax ([7]; 10XCmax): 0
- ROS measured by CM-H2DCFDA at 20XCmax ([7]; 20XCmax): 0
- ROS measured by CM-H2DCFDA at 30XCmax ([7]; 30XCmax): 0
- ROS measured by CM-H2DCFDA at 50XCmax ([7]; 50XCmax): 0
- ROS measured by CM-H2DCFDA at 100XCmax ([7]; 100XCmax): 0
